# Assay results reported in US20240016775A1, “ANTI-CORONAVIRUS APPLICATION OF POLY ADP RIBOSE POLYMERASE INHIBITOR” (FUKANG (SHANGHAI) HEALTH TECHNOLOGY CO., LTD, priority 2020, published 2024).
# pEC50: −log10 of the molar value. Several values for one entry are separate records, joined by “and”; a condition that tells them apart may be missing. Equal entries are not always repeated. Structures can show the parent of a compound that is named as a salt. Where two headings read alike, the source gives them in different places.
# Experiments:
# SARS-CoV-2 [1] = assay: microbe, parasite or virus in culture; format: cell-based; conditions: for inhibition at 3 µM: read-out: Inhibiting rate, %, 3 μM
# [2] = Cytotoxicity test on Vero-E6 cells (CCK-8); format: cell-based; conditions: African green monkey, 48 h, read-out: CC50 (50% cytotoxic concentration)
# Protocol: (§1) 2.1 Experimental Groups: • 1) Mefuparib hydrochloride (CVL218) group • 2) DMSO control group • 3) Olaparib group • 4) Cell control group: containing only cells, without adding drugs • 5) Blank control group (only medium without cells)
# (§2) Mefuparib hydrochloride was obtained from Pukang (Shanghai) Health Technology Co., Ltd., with a purity of >99.0%. It was dissolved in DMSO and then diluted in gradients according to Table 4 below (the maintenance solution was DMEM medium). Serial dilutions were performed for DMSO according to the same dilution gradients.
# (§3) Vero-E6 cells were seeded into 96-well culture plates at 1×10^4 cells/well, and cultured in DMEM containing 10% fetal bovine serum for 16 hours to become 80% pellets, then the cell culture medium was aspirated and discarded from each well, the cells were washed once with sterile PBS, and different drugs (200 μl/well) diluted in the cell maintenance solution were added to each well according to the experimental groups, with 3 duplicate wells set up for each group, and then the wells were placed in a 37° C., 5% CO2 incubator for 48 h.
# (§4) For the DMSO control group, DMSO diluted with the cell maintenance solution to the corresponding concentration was added, and for the cell control group, 200 μl of the cell maintenance solution was added. For the blank control group, only cell maintenance solution without cells was added.
# (§5) 2.3.2 Detection of toxicity of mefuparib hydrochloride and Olaparib on Vero-E6 The cell state was observed and recorded under an inverted microscope, and the toxicity of the drug to Vero-E6 cells was detected according to the operation instructions of the CCK-8 kit: 20 μl of CCK-8 solution was added to all experimental wells and control wells, and the cell culture plate was placed in a 37° C., 5% CO2 incubator for 1 hour, and then its absorbance value at the wavelength of 450 nm was measured using a multifunctional microplate reader.
# Vero-E6 cells = assay: Cytotoxicity test on Vero-E6 cells (CCK-8); format: cell-based; conditions: 30 μM
# Protocol: as §1, §2, §3, §4, §5
# SARS-CoV-2 [3] = assay: Time-of-addition assay (duration of action) in Vero E6 cells; format: cell-based; conditions: CVL218 20 μM, remdesivir 10 μM, 14 h after infection
# IL-6 production in PBMCs = format: cell-based; conditions: 12 hours
# [4] = Pharmacokinetic study of CVL218 in rats; format: in vivo, Sprague-Dawley rats
# Protocol: (§6) Sprague-Dawley rats were purchased from Animal Experiment Center of Shanghai, China. The experimental animals were housed in groups in wire cages, with no more than 6 animals per cage. The experimental conditions were good (temperature 25±2° C.; relative humidity 50±20%) and light-dark cycle (12 hours/12 hours). 144 Sprague-Dawley rats were randomized into 4 groups (18 animals/gender/group). CVL218 was administered at doses of 20, 40, 60 and 160 mg/kg. For all groups, 20 rats (10 animals/gender/group) were randomly selected, euthanized on day 28, and sections of various tissues and organs were obtained and frozen. Ten (5/gender/group) animals were euthanized after a 28-day drug-free period, and sections of their tissues and organs were taken and frozen. Six animals (3/gender/group) were euthanized after blood samples were collected. For pharmacokinetics and safety evaluations, the blood concentrations, clinical symptoms, mortality and body weight of animals were examined.
# [5] = Tissue distribution study of CVL218 in rats (LC-MS-MS); format: in vivo, Sprague-Dawley rats; conditions: for Tissue concentration, Brain / Tissue concentration, Heart / Tissue concentration, Kidney / Tissue concentration, Liver / Tissue concentration, Lung / Tissue concentration, Spleen / Tissue concentration, Stomach: oral 20 mg/kg
# Protocol: Sprague-Dawley rats were randomized into 3 time-point groups (3 animals/gender/group). At 3, 6 and 8 hours after CVL218 administration, animals were sacrificed, and the brain, heart, lung, liver, spleen, stomach and kidney tissues were collected. The tissue samples were washed with ice-cold physiological saline and weighed after excess liquid was removed with paper towels. After tissue sample solutions were weighed, they were stored at −20±2° C. until the drug concentration was determined by LC-MS-MS.
# [6] = Body weight of rats, 28 days oral administration and 28 days without; format: in vivo, Sprague-Dawley rats; conditions: oral 20/60/160 mg/kg, then 28 days off
# Protocol: as §6
# [7] = Safety study in cynomolgus monkeys (body weight); format: in vivo; conditions: 5/20/80 mg/kg, 28 days, then 28 days off
# Protocol: Healthy male and female monkeys, aged 3-4 years, were purchased from Landao Biotechnology, Guangdong, China. Animals were fed in accordance with the Guide for Care and Use of Laboratory Animals. The animals were randomized (5 animals/gender/group), and were fed with CVL218 via nasogastric at dose levels of 0 (control), 5, 20 and 80 mg/kg. Monkeys were observed twice daily for any changes in viability/mortality and behavior, response to treatment or health status.
# SARS-CoV-2 [8] = tested on: SARS-CoV-2
# [9] = Severe acute respiratory syndrome coronavirus 2, Vero C1008, 48 h, Vero-E6, MOI 0.05, 48 h
smiles,measurement,setting,value
CC(=O)N[C@H]1[C@H]([C@H](O)[C@H](O)CO)OC(C(=O)O)=C[C@@H]1N=C(N)N [Zanamivir],inhibition at 3 µM,SARS-CoV-2 [1]; [9],-10.7%
CNCc1ccc(-c2cc3cc(F)cc(C(N)=O)c3o2)cc1 [mefuparib hydrochloride],CC50 at 48 h,[2],~92 µM
same,Inhibitory effect on the cells (toxicity),Vero-E6 cells,no inhibitory effect on the cells
"CNCc1ccc(-c2cc3cc(F)cc(C(N)=O)c3o2)cc1.Cl [CVL218, mefuparib hydrochloride]","Inhibiting rate, %","SARS-CoV-2 [1]; 3 μM, Vero-E6, MOI 0.05, 48 h, hydrochloride",35% and 35.16%
same,pEC50,"SARS-CoV-2 [1]; different batches, hydrochloride, read-out: EC50 against SARS-CoV-2",5.12 and 5.29
same,"Antiviral activity, after the virus enters",SARS-CoV-2 [3],significantly inhibit the replication after viral entry
same,"Antiviral activity, when the virus enters",SARS-CoV-2 [3],partially antagonize viral entry
same,"Antiviral activity, whole process treatment",SARS-CoV-2 [3]; versus DMSO,stronger antiviral activity
same,Reduction of CpG-induced IL-6 production,IL-6 production in PBMCs; 1 μM,50%
same,Reduction of CpG-induced IL-6 production,IL-6 production in PBMCs; 3 μM,72.65%
same,AUC0-t,"[4]; oral 20 mg/kg, Female",2196 ± 228 ngh/mL
same,AUC0-∞,"[4]; oral 20 mg/kg, Female",2222 ± 241 ngh/mL
same,Cmax,"[4]; oral 20 mg/kg, Female",502 ± 80 ng/mL
same,MRT0-∞,"[4]; oral 20 mg/kg, Female",3.16 h
same,Tmax,"[4]; oral 20 mg/kg, Female",3.0 h
same,t1/2,"[4]; oral 20 mg/kg, Female",1.1 ± 0.16 h
same,AUC0-t,"[4]; oral 20 mg/kg, Male",1070 ± 176 ngh/mL
same,AUC0-∞,"[4]; oral 20 mg/kg, Male",1111 ± 192 ngh/mL
same,Cmax,"[4]; oral 20 mg/kg, Male",234 ± 35 ng/mL
same,MRT0-∞,"[4]; oral 20 mg/kg, Male",3.91 h
same,Tmax,"[4]; oral 20 mg/kg, Male",4.0 h
same,t1/2,"[4]; oral 20 mg/kg, Male",1.19 ± 0.09 h
same,AUC0-t,"[4]; oral 20 mg/kg, Total",1633 ± 643 ngh/mL
same,AUC0-∞,"[4]; oral 20 mg/kg, Total",1666 ± 639 ngh/mL
same,Cmax,"[4]; oral 20 mg/kg, Total",368 ± 157 ng/mL
same,MRT0-∞,"[4]; oral 20 mg/kg, Total",3.54 h
same,Tmax,"[4]; oral 20 mg/kg, Total",3.5 h
same,t1/2,"[4]; oral 20 mg/kg, Total",1.15 ± 0.13 h
same,AUC0-t,"[4]; oral 40 mg/kg, Female",5220 ± 1113 ngh/mL
same,AUC0-∞,"[4]; oral 40 mg/kg, Female",5242 ± 1115 ngh/mL
same,Cmax,"[4]; oral 40 mg/kg, Female",940 ± 117 ng/mL
same,MRT0-∞,"[4]; oral 40 mg/kg, Female",4.05 h
same,Tmax,"[4]; oral 40 mg/kg, Female",2.0 h
same,t1/2,"[4]; oral 40 mg/kg, Female",1.29 ± 0.21 h
same,AUC0-t,"[4]; oral 40 mg/kg, Male",2802 ± 967 ngh/mL
same,AUC0-∞,"[4]; oral 40 mg/kg, Male",2830 ± 983 ngh/mL
same,Cmax,"[4]; oral 40 mg/kg, Male",510 ± 259 ng/mL
same,MRT0-∞,"[4]; oral 40 mg/kg, Male",4.51 h
same,Tmax,"[4]; oral 40 mg/kg, Male",3.0 h
same,t1/2,"[4]; oral 40 mg/kg, Male",1.3 ± 0.33 h
same,AUC0-t,"[4]; oral 40 mg/kg, Total",4011 ± 1620 ngh/mL
same,AUC0-∞,"[4]; oral 40 mg/kg, Total",4036 ± 1620 ngh/mL
same,Cmax,"[4]; oral 40 mg/kg, Total",725 ± 296 ng/mL
same,MRT0-∞,"[4]; oral 40 mg/kg, Total",4.28 h
same,Tmax,"[4]; oral 40 mg/kg, Total",2.5 h
same,t1/2,"[4]; oral 40 mg/kg, Total",1.3 ± 0.24 h
same,"Tissue/serum drug concentration ratio, Brain",[5],9.728 ± 1.130
same,"Tissue/serum drug concentration ratio, Heart",[5],16.514 ± 1.348
same,"Tissue/serum drug concentration ratio, Kidney",[5],41.307 ± 5.391
same,"Tissue/serum drug concentration ratio, Liver",[5],46.780 ± 5.215
same,"Tissue/serum drug concentration ratio, Spleen",[5],54.897 ± 6.250
same,"Tissue/serum drug concentration ratio, Stomach",[5],22.133 ± 7.130
same,"Tissue/serum drug concentration ratio, Lung",[5]; hydrochloride,188 and 188.364 ± 28.467
same,"Tissue concentration, Brain",[5]; 180 min,3580 ± 416
same,"Tissue concentration, Heart",[5]; 180 min,6077 ± 496
same,"Tissue concentration, Kidney",[5]; 180 min,15201 ± 1984
same,"Tissue concentration, Liver",[5]; 180 min,17215 ± 1919
same,"Tissue concentration, Lung",[5]; 180 min,69318 ± 10476
same,"Tissue concentration, Spleen",[5]; 180 min,20202 ± 2300
same,"Tissue concentration, Stomach",[5]; 180 min,8145 ± 2624
same,"Tissue concentration, Brain",[5]; 360 min,998 ± 220
same,"Tissue concentration, Heart",[5]; 360 min,1390 ± 292
same,"Tissue concentration, Kidney",[5]; 360 min,3903 ± 594
same,"Tissue concentration, Liver",[5]; 360 min,2187 ± 859
same,"Tissue concentration, Lung",[5]; 360 min,18858 ± 2365
same,"Tissue concentration, Spleen",[5]; 360 min,6358 ± 1058
same,"Tissue concentration, Stomach",[5]; 360 min,1871 ± 813
same,"Tissue concentration, Brain",[5]; 480 min,317 ± 55
same,"Tissue concentration, Heart",[5]; 480 min,275 ± 80
same,"Tissue concentration, Kidney",[5]; 480 min,993 ± 327
same,"Tissue concentration, Liver",[5]; 480 min,213 ± 88
same,"Tissue concentration, Lung",[5]; 480 min,4183 ± 847
same,"Tissue concentration, Spleen",[5]; 480 min,1475 ± 324
same,"Tissue concentration, Stomach",[5]; 480 min,569 ± 293
same,Body weight versus control group,[6],no significant difference in body weight
same,Body weight versus control group,[7],no significant difference in body weight
same,Cytopathic effect in infected cells,SARS-CoV-2 [8]; 25 μM,No apparent cytopathic effect
same,Expression of the viral nucleoprotein (NP),"SARS-CoV-2 [8]; 5, 15, 25 μM, 14 h after infection, versus DMSO treated cells",significantly lower
CCOC(=O)C1=C[C@@H](OC(CC)CC)[C@H](NC(C)=O)[C@@H](N)C1 [Oseltamivir],inhibition at 3 µM,SARS-CoV-2 [1]; [9],-13.5%
"O=C(c1cc(Cc2n[nH]c(=O)c3ccccc23)ccc1F)N1CCN(C(=O)C2CC2)CC1 [Olaparib, olaparib, reference compound]",inhibition at 3.2 µM,"SARS-CoV-2 [1]; Severe acute respiratory syndrome coronavirus 2, Vero C1008, 48 h, 3.2 μM, Vero-E6, MOI 0.05, 48 h, different batches, read-out: Inhibiting rate, %",~12%
same,CC50 at 48 h,[2],100 to 300 µM
